In brackets after ≈: the same amount, converted by molar mass.
What was measured:
MRSA ATCC 43300 [1] = test: MIC, broth dilution micro-method; format: cell-based; conditions: Staphylococcus aureus, 24 h, MHB
Method: (§1) The MICs of NPDM against MRSA were determined by the broth dilution micro-method. Briefly, the stock solution of NPDM and the reference drug tiamulin were diluted by a two-fold serial dilution method with MHB in a 96-well plate to provide concentration ranges of 16~0.032 μg/mL. Then 100 μL of bacterial suspensions in log phase were diluted to 10^6 CFU/mL with MHB and were added to each well to make the final concentrations of the test compounds ranging from 8 to 0.016 μg/mL. The bacterial suspension (no drugs but solvent) was used as the positive control and MHB (no cultures) was used as the negative control. […] The MICs assay was carried out in triplicate.

[2] = system: S. aureus 144 (clinical strain); test: MIC, broth dilution micro-method; format: cell-based; conditions: Staphylococcus aureus, 24 h, MHB
Method: as §1

[3] = system: S. aureus AD3 (clinical strain); test: MIC, broth dilution micro-method; format: cell-based; conditions: Staphylococcus aureus, 24 h, MHB
Method: as §1

S. aureus ATCC 29213 [4] = test: MIC, broth dilution micro-method; format: cell-based; conditions: Staphylococcus aureus, ATCC29213, 24 h, MHB
Method: as §1

MRSA ATCC 43300 [5] = test: MBC assay; format: cell-based, Staphylococcus aureus; conditions: Staphylococcus aureus; MRSA ATCC 43300
Method: (§2) Determination of MBCs refers to the minimum concentrations of antibacterial agents required to kill 99.9% of the test microorganisms after 24 h of incubation. After obtaining the MICs value, the 96-well plates were placed at 37 °C and incubated for 24 h. One hundred microliter aliquots of the bacterial suspensions were taken from the wells without visible bacterial growth and then plated onto MHA plates. […] The MBC assay was conducted at least in triplicate.

[6] = system: S. aureus 144 (clinical strain); test: MBC assay; format: cell-based; conditions: Staphylococcus aureus
Method: as §2

[7] = system: S. aureus AD3 (clinical strain); test: MBC assay; format: cell-based; conditions: Staphylococcus aureus
Method: as §2

S. aureus ATCC 29213 [8] = test: MBC assay; format: cell-based; conditions: Staphylococcus aureus, ATCC29213
Method: as §2

MRSA ATCC 43300 [9] = test: Time-kill assay; format: cell-based, Staphylococcus aureus
Method: (§3) The MRSA and S. aureus in the logarithmic phase were diluted to 10^6 CFU/mL with MHB. Then diverse concentrations of NPDM or tiamulin were added to the bacteria solution reaching the final concentration of 1 × MIC, 2 × MIC, 4 × MIC, and 8 × MIC, respectively. All bacterial inoculums were cultured at 37 °C with shaking. A total of 100 μL samples were taken from the subcultures at 0, 3, 6, 9, and 24 h, respectively, and continuously diluted 10-fold in sterile saline; then, 25 μL diluent was plated on the MHA plate. All plates were placed at 37 °C for 24 h. The total number of colonies on the plate was counted, and the results were expressed as log (CFU/mL).

S. aureus ATCC 29213 [10] = test: Time-kill assay; format: cell-based, Staphylococcus aureus
Method: as §3

MRSA ATCC 43300 [11] = test: Post-antibiotic effect (PAE) assay; format: cell-based, Staphylococcus aureus
Method: The PAE was carried out as described in the literature. The MRSA was diluted to 10^6 CFU/mL in MHB. The NPDM or tiamulin was added into the bacteria solution at the final concentrations of 2 × MIC and 4 × MIC. Then all tubes were incubated at 37 °C for 1 h or 2 h. Each of the above inoculums was diluted 1000-fold with pre-warmed MHB to remove the test compounds and placed in a water bath at 37 °C immediately. One hundred microliters of suspension were taken from each culture, diluted 10-fold in sterile saline, and inoculated on MHA plates at 0, 1, 2, 4, and 6 h after inoculation. The total number comprising the colonies was counted after incubation at 37 °C for 20 h. The PAE was calculated referring to published methods. The experiment was performed in triplicate.

BRL-3A cells = test: Cytotoxicity, MTT assay; format: cell-based; conditions: Rattus norvegicus; BRL-3A cells, MTT, 16 h incubation; read-out: 50% inhibition concentration (IC50), cell viability
Method: The cytotoxicity of NPDM was evaluated by the MTT assay as previously reported. Briefly, the medium containing 1 × 10^5 BRL-3A cells per 1 mL was seeded into a 96-well plate at 100 μL per well. After incubation for 48 h, media were replaced with 100 μL of serial dilutions of test compounds and incubated for 16 h. The absorbance (A) was measured at 490 nm by an automatic microplate reader (BIO-TEK Instrument Inc., Winooski, VT, USA). The cell viability was calculated according to Equation (1):(1) Cell viability (%) = (Asimple−Anegative)/(Apositive−Anegative)×100%
A graph was constructed by plotting the inhibition percentage versus various concentrations of NPDM and tiamulin, from which the IC50 of NPDM or tiamulin was calculated. The measurement was repeated in triplicate.

MRSA ATCC 43300 [12] = test: Neutropenic mouse thigh infection model; format: in vivo, Staphylococcus aureus; conditions: 20 mg/kg i.v., neutropenic mice
Method: (§4) The mouse thigh infection model was performed as described in the literature with minor modifications. Briefly, female mice had induced neutropenia (neutrophil count ≤ 100/mm^3) by administered intraperitoneally cyclophosphamide on day 4 (150 mg/kg) and day 1 (100 mg/kg) before the experiment. A bacterial suspension of 0.1 mL (MRSA or S. aureus) containing approximately 10^7 CFU/mL microorganism was injected into the posterior thigh of mice to establish infection. Two hours after infection, mice were intravenously injected with NPDM or tiamulin at 20 mg/kg. After 24 h, thighs (six per group) were collected upon euthanasia. Then, thighs were weighed and homogenized with sterile saline. Tissue homogenate was continuously diluted 10-fold and plated on MHA plates for colony counts. SPSS 19 software was used for statistical analysis and t-tests.

S. aureus ATCC 29213 [13] = test: Neutropenic mouse thigh infection model; format: in vivo, Staphylococcus aureus; conditions: 20 mg/kg i.v., neutropenic mice
Method: as §4

MRSA ATCC 43300 [14] = test: Galleria mellonella infection model; format: in vivo; conditions: Staphylococcus aureus, 120 h; Galleria mellonella larvae infected with MRSA, survival over 5 days
Method: The survival rate of Galleria mellonella was determined according to the literature with some modifications. Larvae of Galleria mellonella (16 per group) were injected with 10 μL of 10^8 CFU/mL MRSA inoculum into the last right proleg. Two hours after infection, larvae were injected with 10 μL of various doses (17.14, 25.71, 37.14, 57.14, and 85.71 mg/kg) of NPDM or tiamulin (used as reference drug) into the last left proleg. The larvae were maintained at 37 °C. Survival of the larvae was recorded daily for 5 days, and the ED50 was calculated.

MIC (MRSA ATCC 43300 [1]): 0.5 µg/mL (≈ 1.01 µM) | MIC [2]: 0.5 µg/mL (≈ 1.01 µM) | MIC [3]: 0.5 µg/mL (≈ 1.01 µM) | MIC (S. aureus ATCC 29213 [4]): 0.5 µg/mL (≈ 1.01 µM)
Structure (SMILES): C=C[C@]1(C)C[C@@H](OC(=O)CSCCN(CC)CC)[C@]2(C)[C@H](C)CC[C@]3(CCC(=O)[C@H]32)[C@@H](C)[C@@H]1O [Tiamulin, reference compound]
MBC (MRSA ATCC 43300 [5]): 0.5 µg/mL (≈ 1.01 µM) | MBC [6]: 2 µg/mL (≈ 4.05 µM) | MBC [7]: 2 µg/mL (≈ 4.05 µM) | MBC (S. aureus ATCC 29213 [8]): 0.5 µg/mL (≈ 1.01 µM) | Time-kill activity at 2 × MIC (MRSA ATCC 43300 [9]; 2 × MIC): bacteriostatic activity with a rebound growth | Concentration showing bactericidal activity (≥3 log10 CFU/mL decrease) (MRSA ATCC 43300 [9]; after incubation for 24 h): ≥ 4 × MIC | Concentration showing bacteriostatic effect (S. aureus ATCC 29213 [10]): ≥ 2 × MIC | PAE (MRSA ATCC 43300 [11]; 2 × MIC, exposure for 1 h): 1.53 h | PAE (MRSA ATCC 43300 [11]; 2 × MIC, exposure for 2 h): 1.65 h | PAE (MRSA ATCC 43300 [11]; 4 × MIC, exposure for 1 h): 1.90 h | PAE (MRSA ATCC 43300 [11]; 4 × MIC, exposure for 2 h): 2.04 h | IC50 (BRL-3A cells): 13.1 µg/mL (≈ 26.5 µM) | Reduction of mean MRSA counts in thighs vs untreated group (MRSA ATCC 43300 [12]; 24 h): ~ 1.15 log CFU/mL | Average amount of MRSA inoculum in thighs (MRSA ATCC 43300 [12]; 24 h after treatment): (2.64 ± 1.95) × 10^8 CFU | Average amount of S. aureus inoculum in thighs (S. aureus ATCC 29213 [13]; 24 h after treatment): (2.00 ± 1.21) × 10^8 CFU | Reduction of mean bacterial counts in thighs vs untreated group (S. aureus ATCC 29213 [13]; S. aureus, 24 h): ~ 0.68 log CFU/mL | ED50 (MRSA ATCC 43300 [14]): 75.7 mg/kg
